The subject of one test is pEGFR. Description: Immunoblot of pEGFR after cobimetinib. The settings on record: cobimetinib 250 nM, 24 hours; FIG. 6K. Type of test: cell-based. The procedure: (§1) Cells lysed in lysis buffer (0.5% NP40, 20 mM Tris, pH 7.5, 137 mM NaCl, 10% glycerol, 1 mM EDTA) plus protease inhibitor mixture-complete mini (Roche Applied Science, 11836170001) and phosphatase inhibitor mix (Thermo, 78426). Lysates were centrifuged at 15,000 rpm for 10 minutes and the protein concentration determined using BCA (Thermo, 23227). Equal amounts of protein were subjected to SDS-PAGE NuPAGE 4-12% Bis-Tris Gel (Novex, WG-1403) and transferred to nitrocellulose membrane (BioRad, 170-4159). After blocking in blocking buffer (Li-Cor, 927-40000), membranes were incubated with the indicated primary antibodies and analyzed either by the addition of secondary antibodies IRDye 680LT Goat anti-Mouse IgG (H+L) (Li-Cor, 926-68050) or IRDye 800CW goat anti-Rabbit IgG (H+L) (Li-Cor, 926-32211). The membranes were visualized on the LiCor Odyssey CLx Scanner.

The next test has as its system RAS-GTP. In words: Ras activity assay (RAF1-RBD pull-down). Type of test: cell-based. The procedure:
Levels of active GTP-loaded Ras were determined by GST-Raf-RBD pull-down assay (Thermo Scientific, 16117). In brief, GST-Raf-RBD fusion proteins were incubated with glutathione beads, and cells were collected in lysis buffer as recommended by the manufacturer. The cell lysates were incubated with the GST-Raf-RBD immobilized beads for 1.5 hours at 4° C. Bound proteins were eluted with SDS sample buffer and analyzed by Western blot.

A further test relates to BRAF-CRAF heterodimer. Description: CRAF immunoprecipitation (RAF dimerization). It is filed as cell-based. As for the experimental part: (§2) Cells were plated and lysed as described in immunoblotting method. Cell lysates were incubated with anti-CRAF (Millipore 07-396) or anti-BRAF antibody (Millipore 07-453) and 50 μl of Protein A agarose beads (Millipore 16-125) for 2 h at 4° C. After washing with lysis buffer plus protease and phosphatase inhibitor mixtures, protein A beads were incubated with 0.4 μg of unactive MEK1 (Millipore 14-420) in 40 μl of kinase buffer (20 mM MOPS, pH 7.2, 25 mM β-glycerol phosphate, 5 mM EGTA, 1 mM sodium orthovanadate, 1 mM DTT, 120 μM ATP, 18 mM MgCl2) for 30 min at 30° C. Samples were then analyzed by Western blot.

The test system of test [1] is HCT116 colon xenograft tumor. In words: HCT116 colon xenograft tumor model. The following applies: HCT116; LY-3009120 25 mg/kg IP QD; cobimetinib 5 mg/kg PO QD; FIG. 3A.
Description: The formulations were mixed well by vortexing before dosing. Test articles were stored in a refrigerator set to maintain a temperature range of 4° C.-7° C.
Only animals that appeared to be healthy and that were free of obvious abnormalities were used for each study. Tumor volumes were determined using digital calipers (Fred V. Fowler Company, Inc.) using the formula (L×W×W)/2. […] Mice were weighed twice a week using a standard scale.
The test system of test [2] is A549 KRAS-mutant lung cancer cell line. In words: Tool compound combination screen with AZ-628. It is filed as cell-based. The following applies: 1 μM AZ-628 versus DMSO, FIG. 1D-1E. The procedure:
A compound library comprising 480 compounds arrayed in 9-point dose response was screened in the absence or presence of a fixed dose of either AZ-628 or DMSO in A549 cells. A549 cells were seeded into 384 well plates, and compound was added 24 h later. Cell viability was determined 120 h post-compound addition (CellTiter Glo). Curves were fitted, and both IC50 and mean viability metrics were calculated. The IC50 is the dose at which inhibition is 50% relative to untreated wells. The mean viability is the average of the fitted viabilities at each tested dose. Mean viability is equivalent to the area under the log-dose/viability curve divided by the total number of tested doses. All data were fitted using Genedata Screener (GDS) software. The combination metric was the difference in mean viability between the AZ-628 treated arm and the DMSO treated arm for each compound.

The next test has as its system A549 cells. Description: Clonogenic (colony growth) assay. The settings on record: 8-day clonogenic; 50-100 nM cobimetinib, 100 nM AZ-628. Type of test: cell-based. As for the experimental part: Cells were plated in duplicate in 6-well plates at 10,000 cells/well, allowed to attach overnight and treated for 8 days with the indicated compounds. Media with appropriate compounds was replenished every 72 hours. At 8 days cells were rinsed once with PBS, fixed and stained with crystal violet solution (Sigma Aldrich, HT90132) for 20 minutes and washed with water.

In a further test the target is T1, RAF dimers (Homo sapiens, UniProt P04049+P15056).
T1 construct: Cobimetinib-induced RAF dimers were immunoprecipitated from A549 cells; endogenous in cells; A549, H2122 and HCT116 for cobimetinib induction
T1 sequence (P04049 whole entry): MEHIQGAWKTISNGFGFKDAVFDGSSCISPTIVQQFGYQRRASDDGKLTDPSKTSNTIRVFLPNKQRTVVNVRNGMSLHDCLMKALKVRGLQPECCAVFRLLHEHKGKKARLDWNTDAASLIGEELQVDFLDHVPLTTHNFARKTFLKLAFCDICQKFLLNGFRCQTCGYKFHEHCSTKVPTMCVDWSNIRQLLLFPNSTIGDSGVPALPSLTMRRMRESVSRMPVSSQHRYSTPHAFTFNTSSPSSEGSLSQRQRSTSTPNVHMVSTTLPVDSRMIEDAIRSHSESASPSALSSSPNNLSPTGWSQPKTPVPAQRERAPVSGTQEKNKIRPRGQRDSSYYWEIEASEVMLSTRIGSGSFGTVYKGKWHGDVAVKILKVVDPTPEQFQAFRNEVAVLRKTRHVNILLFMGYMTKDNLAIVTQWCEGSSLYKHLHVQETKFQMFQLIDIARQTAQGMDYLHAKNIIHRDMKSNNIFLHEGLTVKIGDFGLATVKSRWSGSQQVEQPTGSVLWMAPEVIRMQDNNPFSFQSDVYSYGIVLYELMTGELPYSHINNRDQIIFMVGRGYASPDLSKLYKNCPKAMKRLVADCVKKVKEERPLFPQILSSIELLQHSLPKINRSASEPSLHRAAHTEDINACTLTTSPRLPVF
T1 sequence (P15056 2-766 limits assumed): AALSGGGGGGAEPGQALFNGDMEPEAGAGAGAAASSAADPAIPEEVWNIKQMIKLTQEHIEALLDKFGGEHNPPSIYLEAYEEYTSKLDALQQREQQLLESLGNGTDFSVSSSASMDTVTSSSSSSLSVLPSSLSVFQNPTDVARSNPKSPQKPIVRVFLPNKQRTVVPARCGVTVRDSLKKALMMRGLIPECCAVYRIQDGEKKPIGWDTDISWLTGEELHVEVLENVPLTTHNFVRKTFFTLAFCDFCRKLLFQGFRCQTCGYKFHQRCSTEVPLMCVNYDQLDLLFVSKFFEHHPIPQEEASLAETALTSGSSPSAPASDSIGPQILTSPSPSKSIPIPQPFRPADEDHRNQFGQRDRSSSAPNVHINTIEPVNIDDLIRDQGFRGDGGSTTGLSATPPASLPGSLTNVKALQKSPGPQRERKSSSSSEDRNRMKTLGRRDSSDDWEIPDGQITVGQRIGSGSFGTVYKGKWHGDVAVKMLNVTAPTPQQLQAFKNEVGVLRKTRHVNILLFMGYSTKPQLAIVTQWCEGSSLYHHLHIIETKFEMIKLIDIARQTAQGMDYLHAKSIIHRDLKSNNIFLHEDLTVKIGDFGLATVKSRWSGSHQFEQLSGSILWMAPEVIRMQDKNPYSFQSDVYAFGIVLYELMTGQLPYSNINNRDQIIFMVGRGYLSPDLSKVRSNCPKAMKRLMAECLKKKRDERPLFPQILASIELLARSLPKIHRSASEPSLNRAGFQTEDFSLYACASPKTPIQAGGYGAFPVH
Description: In vitro kinase assay of immunoprecipitated RAF with unactive MEK. It is filed as biochemical. As for the experimental part: as §2

For test [3], the system named is NRAS mutant melanoma cell line. In words: Viability of NRAS mutant melanoma versus BRAF-V600E and wild-type lines. It is filed as cell-based. The settings on record: separate study; FIGS. 8C and 8D. As for the experimental part:
Compounds were screened in nine-point dose response using a three-fold dilution. Cells were seeded into 384-well plates 24 hours prior to compound addition. Cells were then incubated with compound for 72 hours or 120 hours before assaying viability (CellTiter-Glo, Promega). Assays were performed in biological triplicate. […] Mean viability is equivalent to the area under the log-dose/viability curve divided by the total number of tested doses.

In a further test the test system is pMEK. In words: Immunoblot of pMEK after cobimetinib in KRAS mutant and wild-type cell lines. It is filed as cell-based. The following applies: for pMEK levels after treatment: cobimetinib 24 hours. The procedure:
as §1
In general terms: A western blot detects proteins with antibodies after separation by electrophoresis.

The test system of test [4] is 196 lung, colon, skin, and ovarian cancer cell lines. Description: 196 cell line screen, HM95573 and cobimetinib co-dilution. It is filed as cell-based. As for the experimental part:
Compounds were screened in nine-point dose response using a three-fold dilution. Cells were seeded into 384-well plates 24 hours prior to compound addition. Cells were then incubated with compound for 72 hours or 120 hours before assaying viability (CellTiter-Glo, Promega). Assays were performed in biological triplicate. Cells were incubated (37° C., 5% CO2) in RPMI-1640, 2.5% FBS (72 hour assay) or 5% FBS (120 hour assay), and 2 mM glutamine throughout the assay. The reported IC50 and mean viability metrics are as follows: IC50 is the dose at which the estimated inhibition is 50% relative to untreated wells (i.e., absolute IC50). Mean viability is equivalent to the area under the log-dose/viability curve divided by the total number of tested doses.
For combination synergy studies, cells were plated in 384-well plates (Corning) and treated with varying concentrations of compound, either alone or in combination for 72 hours. Cell viability was determined using CellTiter-Glo Luminescent Cell Viability Assay (Promega, G7573). Synergistic effects were determined using the Bliss independence analysis methods (Greco et al. Pharmacol. Rev. 47: 331-385, 1995; Chou and Talalay. Adv. Enzyme Regul. 22:27-55, 1984; Chou. Cancer Res. 70: 440-446, 2010; Bliss. Ann. Appl. Biol. 25: 31, 1939).

In test [5] the test system is KRAS mutant syngeneic CRC xenograft model CT26. Description: CT26 tumor growth model. It is filed as in vivo. The following applies: 5 mg/kg each orally once a day, 21 days, vs either agent alone, FIGS. 5F-5G.
The test system of the next test is pMEK, pERK, pRSK, pAKT. In words: Immunoblot of pathway markers after compound treatment. It is filed as cell-based. The following applies: A549 and HCT-116; 1 μM HM95573, 250 nM cobimetinib; FIGS. 5D-5E. The procedure:
as §1

“Also recorded” adds a separate entry of the source.

For `O=C(c1ccc(F)c(F)c1Nc1ccc(I)cc1F)N1CC(O)([C@@H]2CCCCN2)C1` [cobimetinib], the “EGFR activation (pEGFR levels)” value with pEGFR was “little evidence of EGFR activation”. Also, the RAS-GTP levels result in the test with RAS-GTP (KRAS mutant lines, cobimetinib treatment, FIG. 4A) was “elevated RAS-GTP levels at baseline and upon cobimetinib treatment; also recorded: increased RAS-GTP levels”. Moreover, the “active RAS-GTP in response to treatment” value with RAS-GTP (panel of colorectal cancer cell lines, FIG. 5I) is on record as “Only cell lines showing synergy showed increased active RAS-GTP in response to cobimetinib treatment”. Besides, the “concentration at which BRAF-CRAF heterodimer formation and increase in kinase activity occur” value in the test on BRAF-CRAF heterodimer (A549, dose-dependent, FIG. 4E) is 50 to 100 nM. Besides, in the test on BRAF-CRAF heterodimer (KRAS mutant cell lines (A549, H2122, and HCT116), FIG. 4A), the “BRAF co-immunoprecipitation with CRAF” value was “BRAF strongly co-immunoprecipitated with CRAF”. In test [1], the “tumor growth, single agent” value is “modestly inhibited tumor growth”. In test [2], the “hit ranking / mean viability difference with AZ-628” value is “top hit; also recorded: scored highest among the compounds tested”. In the test with A549 cells, the “single-agent effect on cell growth” value is “had little effect on cell growth on their own”. The “kinase activity of RAF dimers after treatment” value at RAF dimers (KRAS mutant cell lines, vs DMSO, FIG. 4A) is “highly active”. Also, the “pMEK levels in in vitro RAF kinase assay” value at RAF dimers (colorectal lines with or without synergy, cobimetinib, FIG. 5B-5C) is recorded as “strong increases in pMEK levels after cobimetinib treatment were observed, primarily in the lines showing synergy”. Further, the “cell viability and 1050, NRAS mutant vs BRAF-V600E” value in [3] was “showed greater efficacy in the BRAF-V600E cell line relative to the NRAS mutant cell line”. In addition, the “pMEK levels after treatment” value was “an increase in the pMEK levels in the KRAS mutant cells but not the KRAS wild-type cells” in the test on pMEK (KRAS mutant vs KRAS wild-type cells, FIG. 4A); “an increase in the pMEK levels in the KRAS mutant and wild-type synergistic cells but not the KRAS mutant and wild-type non-synergistic cells” in the test on pMEK (synergistic vs non-synergistic colon and lung lines, FIGS. 4B-4D). Besides, the “induction of pMEK, KRAS-G13D vs non-KRAS-G13D” value with pMEK (colorectal cell lines, cobimetinib 250 nM, 24 hr, FIG. 6E) is given as “stronger induction of pMEK in G13D cell lines; also recorded: more enhanced induction of pMEK following MEK inhibition relative to other KRAS mutants”.
As for `Cc1ccc2c(Nc3cccc(Cl)c3F)nccc2c1NC(=O)c1csc2c(N)ncnc12` [HM95573], in [4] (HM95573 and cobimetinib, colorectal and lung lines, FIG. 6D), the “association of combination sensitivity with KRAS-G13D” value was “This trend was most evident in colorectal cancer lines”. For the same compound, in test [4] (co-dilution with cobimetinib, three days, FIG. 5H), the “synergy score (positive Bliss excess) with cobimetinib by genotype” value was “significantly higher synergy scores were observed in RAS mutant cell lines compared to either BRAF-V600 mutants or wild-type; also recorded: greater synergy in RAS mutant cell lines and a subset of RAS/RAF wild-type cell lines relative to BRAF-V600 cell lines”. Moreover, in test [5], the “tumor growth inhibition (TGI), combination with cobimetinib” value was “improved tumor growth inhibition (TGI) in vivo”. The “combination activity with cobimetinib on pMEK, pERK, pRSK” value with pMEK, pERK, pRSK, pAKT is on record as “combination activity was also observed; also recorded: combination activity is observed”.

(Values after patent US11859252B2, “Diagnostic and therapeutic methods for cancer” (Genentech, Inc., priority 2017, dated 2024).)
